Results published in article PMC4102551, “Screening and Characterisation of Antimicrobial Properties of Semisynthetic Betulin Derivatives” (PLoS ONE, 2014).
Where “and” joins values, the source holds several entries; their conditions need not be identical. Equal values may be shown once. Read-outs that look alike come from different tables or passages of the source.

Assays:
E. aerogenes ATCC 13048 = experiment: Broth microdilution assay, E. aerogenes; format: cell-based, Enterobacter aerogenes; conditions: for inhibition at 50 µM: Klebsiella aerogenes, ATCC13048, 24 h, read-out: Inhibitory effect (%) E. aerogenes ATCC 13048
Protocol: (§1) Clinically used antimicrobial agents were selected based on international guidelines for antimicrobial testing and were utilised as reference compounds in the antimicrobial assays. The compounds were purchased from Sigma, Fluka and ICN Biomedicals. Stock solutions of the reference compounds were prepared either in double distilled sterile MilliQ water or in DMSO. Water solutions were sterilised through a 0.22 µm filter (VWR International). […] During the primary screening, these reference compounds were used as positive controls at the determined MIC on every plate.
(§2) Gram-negative strains Escherichia coli (ATCC 25922), Enterobacter aerogenes (ATCC 13048) and Pseudomonas aeruginosa (ATCC 27853), Gram-positive strains Staphylococcus aureus (ATCC 25923) and Enterococcus faecalis (ATCC 29212), and fungal strain Candida albicans (ATCC 90028) were obtained from Microbiologics Inc., and used for the antimicrobial screening. Strains were selected according to the guidelines set for clinical laboratories by Clinical and Laboratory Standards Institute [CLSI, formerly National Committee on Clinical Laboratory Standards [22]] and the European Committee on Antimicrobial Susceptibility Testing (EUCAST). Bacterial strains were grown on Mueller Hinton II Agar (MHA) (BBL, BD) and Mueller Hinton II broth (MHB) (BBL, BD), whereas Candida was initiated on Sabouraud Dextrose Agar (SDA) (Difco, BD) plates. Media were prepared into MilliQ water according to manufacturer’s instruction and autoclaved at 121°C for 15 min. Bacteria were plated on MHA plates and incubated at 37°C for 16–18 h. Bacterial suspension for the assays was prepared by subculturing the bacteria into MHB and by incubating at 37°C for 16–20 h at 110 rpm prior to the assay. Candida strain was grown on SDA plates at 27°C for 16–18 h and suspended into sterile 0.9% saline for the assay.
(§3) Antimicrobial screening assays were performed by broth microdilution method following the guidelines of CLSI and EUCAST. Bacterial suspensions were prepared as mentioned earlier and diluted with MHB to obtain a final inoculum of 5×10^5 colony-forming units (cfu)/mL in the assay for all the bacteria (based on OD620 values previously calibrated against plate counts). Candida suspension was prepared into sterile 0.9% saline solution as stated earlier. […] Assays were carried out in clear 96-well microtitre plates and initiated by dispensing an equal volume of microbial suspension and sample solution diluted into the assay medium into the wells. The plates were incubated for 24 h at 37°C (for Candida the incubation was at 35°C for 48 h) with agitation. Absorbance was measured at 620 nm with Victor plate reader (Wallac 1420, Perkin Elmer) at 0, 4 and 24 h with the bacteria, and at 0, 24 and 48 h with Candida. The antimicrobial activity of the samples was calculated from the absorbance values by comparing to the controls, and expressed as a percentage inhibition of growth. All the betulin derivatives were first assayed at the single concentration of 50 µM (two separate experiments, each with three replicates). […] The MIC90 value was expressed as the lowest concentration of compound that inhibited the microbial growth by >90%. The MIC90 results are means of three replicates from two separate experiments.

E. coli ATCC 25922 = experiment: Broth microdilution assay, E. coli; format: cell-based, Escherichia coli
Protocol: as §1, §2, §3

E. faecalis ATCC 29212 = experiment: Broth microdilution assay, E. faecalis; format: cell-based, Enterococcus faecalis; conditions: for inhibition at 50 µM: Enterococcus faecalis, ATCC29212, 24 h
Protocol: as §1, §2, §3

P. aeruginosa ATCC 27853 = experiment: Broth microdilution assay, P. aeruginosa; format: cell-based, Pseudomonas aeruginosa
Protocol: as §1, §2, §3

S. aureus ATCC 25923 = experiment: Broth microdilution assay, S. aureus; format: cell-based, Staphylococcus aureus; conditions: for inhibition at 50 µM: Staphylococcus aureus, ATCC25923, 24 h
Protocol: as §1, §2, §3

C. albicans ATCC 90028 = experiment: Broth microdilution assay, C. albicans; format: cell-based, Candida albicans
Protocol: as §1, §2, §3

in vitro = format: cell-based, human; conditions: human
Protocol: (§4) Huh-7 cells (derived from human hepatocellular carcinoma) were obtained as a gift from Prof. Ralf Bartenschlager (University of Heidelberg, Germany) and used for assessing the cytotoxicity against mammalian cells. HL cells (a heteroploid cell line used for propagating respiratory viruses) were used as a host cell line in the host-pathogen co-culture assay. […] Both cell lines were cultured at 37°C, 5% CO2 and 95% humidity.
(§5) The effect of the betulin derivatives on metabolic activity of Huh-7 cells was evaluated by measuring the intracellular ATP content of the cells after 24 h exposure to the compounds. In brief, cells were seeded at 20000 cells/well on white-walled microplates (PerkinElmer) and incubated at 37°C, 5% CO2 and 95% humidity. After culturing the cells overnight, the medium was replaced with the assay media (5% FBS) containing the sample and the cells were incubated for 24 h. Polymyxin B sulphate (15000 IU/mL) was used as a positive control. Following the incubation period, Promega’s CellTiter-Glo Cell Viability Assay was used to determine the intracellular ATP levels according to the manufacturer’s instructions. Cells were washed with 100 µL 6.7 mM PBS, pH 7.4 and 50 µL of fresh assay media and 50 µL of the CellTiter-Glo reagent were added into the wells. After 2 min shaking, followed by 10 min incubation at RT, luminometric signal was measured using Varioskan Flash plate reader (Thermo Fisher Scientific).

Huh-7 cells = experiment: in vitro; format: cell-based, human; conditions: for Cytotoxicity (%) Huh-7 cells: 50 µM
Protocol: as §4, §5

[1] = 50 µM, 24 h, inhibition of growth, mean ± SD
[2] = Escherichia coli, ATCC25922, 24 h; read-out: Inhibitory effect (%) E. coli ATCC 25922
[3] = 50 µM, 24 h, inhibition of growth, mean ± SD, read-out: Inhibitory effect (%) E. faecalis ATCC 29212
[4] = Pseudomonas aeruginosa, ATCC27853, 24 h; read-out: Inhibitory effect (%) P. aeruginosa ATCC 27853
[5] = 50 µM, 24 h, inhibition of growth, mean ± SD, read-out: Inhibitory effect (%) S. aureus ATCC 25923
[6] = Candida albicans, ATCC90028, 48 h; read-out: Inhibitory effect (%) C. albicans ATCC 90028
[7] = 50 µM, 24 h exposure, ATP content, 5% FBS, read-out: Cytotoxicity (%) Huh-7 cells
[8] = 50 µM, 48 h at 35°C, inhibition of growth, mean ± SD
[9] = 24 h exposure, ATP content, 5% FBS

Row | Compound | inhibition at 50 µM (E. aerogenes ATCC 13048; [1]) | inhibition at 50 µM (E. coli ATCC 25922; [2]) | inhibition at 50 µM (E. faecalis ATCC 29212; [3]) | inhibition at 50 µM (P. aeruginosa ATCC 27853; [4]) | inhibition at 50 µM (S. aureus ATCC 25923; [5]) | inhibition at 50 µM (C. albicans ATCC 90028; [6]) | cytotoxicity at 24 h, 50 µM (in vitro; Cytotoxicity (%) Huh-7 cells) | Inhibitory effect (%) E. faecalis ATCC 29212 (E. faecalis ATCC 29212; [1]) | Inhibitory effect (%) E. aerogenes ATCC 13048 (E. aerogenes ATCC 13048; [1]) | Inhibitory effect (%) E. coli ATCC 25922 (E. coli ATCC 25922; [1]) | Inhibitory effect (%) P. aeruginosa ATCC 27853 (P. aeruginosa ATCC 27853; [1]) | Inhibitory effect (%) S. aureus ATCC 25923 (S. aureus ATCC 25923; [1]) | Inhibitory effect (%) C. albicans ATCC 90028 (C. albicans ATCC 90028; [8]) | Cytotoxicity (%) Huh-7 cells (Huh-7 cells; [9]) | further results
1 | C=C(C)[C@@H]1CC[C@]2(C=O)CC[C@]3(C)C(CCC4[C@@]5(C)CC[C@H](O)C(C)(C)C5CC[C@]43C)C12 (some centres unmarked) [Compound 18, betulinic aldehyde] | 13.5 ± 2.6% | 2.7 ± 2.4% | 39.6 ± 8% | 3.9 ± 0.6% | -35.5% | 6.9 ± 8.1% | 61% |  |  |  |  |  |  |  | IC50 at 24 h (in vitro): 47 µM; Cytotoxicity (%) Huh-7 cells (Huh-7 cells; human, 24 h): 61.3±9.5%
2 | C=C(C)C1CCC2(C=NO)CCC3(C)C(CCC4C5(C)CCC(O)C(C)(C)C5CCC43C)C12 (centres unmarked) [Compound 31, betulin-28-oxime] | 14.6 ± 0.9% | 1.9 ± 4% | 41 ± 3.4% | 5.4 ± 2.2% | 6.4 ± 3.4% | -73.5% | 61% |  |  |  |  |  |  |  | IC50 at 24 h (in vitro): 25 µM; inhibition at 100 µM (Huh-7 cells; Homo sapiens, Huh-7, 100 µM, 24 h, read-out: Inhibition in ATP assay, Huh-7 cells): 60%; Cytotoxicity (%) Huh-7 cells (Huh-7 cells; human, 24 h): 61.5±2.0%
3 | C=C(C)[C@@H]1CC[C@]2(C(=O)Oc3ccc(C=O)cc3OC)CC[C@]3(C)[C@H](CC[C@@H]4[C@@]5(C)CCC(=O)C(C)(C)C5CC[C@]43C)[C@@H]12 (some centres unmarked) [Compound 26, vanillinyl betulonate] |  |  |  |  |  |  | -10.1 ± 2.2% | 58.7±0.1% |  |  |  |  |  |  | inhibition at 50 µM (E. aerogenes ATCC 13048): 7.5 ± 0.6%; inhibition at 50 µM (E. coli ATCC 25922; Escherichia coli, ATCC25922, 24 h, read-out: Inhibitory effect (%) E. coli ATCC 25922): 4.1 ± 0.4%; inhibition at 50 µM (E. faecalis ATCC 29212; read-out: Inhibitory effect (%) E. faecalis ATCC 29212, 50 µM, 24 h, inhibition of growth, mean ± SD): 59%; inhibition at 50 µM (P. aeruginosa ATCC 27853; Pseudomonas aeruginosa, ATCC27853, 24 h, read-out: Inhibitory effect (%) P. aeruginosa ATCC 27853): 6.6 ± 1%; inhibition at 50 µM (S. aureus ATCC 25923; read-out: Inhibitory effect (%) S. aureus ATCC 25923, 50 µM, 24 h, inhibition of growth, mean ± SD): 7.3 ± 5.8%; inhibition at 50 µM (C. albicans ATCC 90028; Candida albicans, ATCC90028, 48 h, read-out: Inhibitory effect (%) C. albicans ATCC 90028): -65.9 ± 15%
4 | CC(=O)OCC12CCC3(C(C)C)C1=C1C(CC4C5(C)CCC(OC(C)=O)C(C)(C)C5CCC4(C)C1(C)CC2)n1c(=O)n(-c2cccc([N+](=O)[O-])c2)c(=O)n13 (centres unmarked) [Compound 38] | 19.3 ± 3% | 8.8 ± 2.6% | > 70% | 7.6 ± 1.4% | 6.7 ± 1.5% | -13.8% |  | 74% and 73.9±1.4% |  |  |  |  |  |  | cytotoxicity at 24 h, 50 µM (in vitro; [7]): 8.3 ± 3.9%
5 | C=C(C)[C@@H]1CC[C@]2(COC(=O)COc3cc(C(C)C)ccc3C)CC[C@]3(C)[C@H](CC[C@@H]4[C@@]5(C)CC[C@H](O)C(C)(C)[C@@H]5CC[C@]43C)[C@@H]12 [Compound 4, betulinyl 28-carboxymethoxycarvacrolate] | 9.9 ± 3.3% | -1.2% | > 70% | 3 ± 3% | -17.2% | 31.4 ± 9.1% | -4.6% | 72% and 72.3±4.0% |  |  |  |  |  |  | 
6 | CC(=O)OCC12CCC3(C(C)C)C1=C1C(CC4C5(C)CCC(OC(C)=O)C(C)(C)C5CCC4(C)C1(C)CC2)n1c(=O)n(-c2ccc4c(c2)CCC4)c(=O)n13 (centres unmarked) [Compound 36] |  |  |  |  |  |  |  | 62.0±1.9% | 14.5±1.3% | 2.6±2.1% | 5.8±0.7% | 6.1±1.7% | 10.7±4.8% | 7.9±2.2% | 
7 | CC(=O)OCC12CCC3(C(C)C)C1=C1C(CC4C5(C)CCC(OC(C)=O)C(C)(C)C5CCC4(C)C1(C)CC2)n1c(=O)n(-c2ccc4c(c2)OCO4)c(=O)n13 (centres unmarked) [Compound 35] | 14.2 ± 1.6% | 3.4 ± 3.1% | > 70% | 5.5 ± 1% | 5.9 ± 1.2% | 4.4 ± 12.9% |  | 70.0±0.9% |  |  |  |  |  |  | cytotoxicity at 24 h, 50 µM (in vitro; [7]): -0.1%
8 | CC(C)C12CCC3(COC(=O)c4ccccc4)CCC4(C)C(=C31)C(CC1C3(C)CCC(OC(=O)c5ccccc5)C(C)(C)C3CCC14C)n1c(=O)n(C)c(=O)n12 (centres unmarked) [Compound 49] |  |  |  |  |  |  |  | 64.6±0.8% | 14.2±1.5% | 0.0±6.0% | 5.3±1.9% | 15.1±1.0% | -48.0±24.5% | -10.6±4.1% | 
9 | CC(C)[C@@H]1CC[C@]2(C(=O)O)CC[C@]3(C)[C@H](CC[C@@H]4[C@@]5(C)CCC(=O)C(C)(C)[C@@H]5CC[C@]43C)[C@@H]12 [Compound 24, dihydrobetulonic acid] | 16.8 ± 5.4% | 6.2 ± 4.5% | 57% | 4.9 ± 0.5% | 15.1 ± 3.7% | 54.9 ± 8.3% | 13 ± 10.3% | 56.6±2.0% |  |  |  |  |  |  | 
10 | CC(=O)OCC12CCC3(C(C)C)C1=C1C(CC4C5(C)CCC(OC(C)=O)C(C)(C)C5CCC4(C)C1(C)CC2)n1c(=O)n(Cc2ccccc2)c(=O)n13 (centres unmarked) [Compound 40] |  |  |  |  |  |  |  | 66.0±1.5% | 15.1±3.4% | -0.8±2.3% | 1.7±0.6% | 4.1±1.1% | 4.4±10.5% | 2.3±2.2% | 
